{"source": "patent US20230047816A1", "about": "(priority 2018, published 2023)", "key": {"[1]": {"test_system": "primary neurons", "test": "NADPH/NADP ratio under excitotoxic conditions induced by glutamate", "format": "cell-based", "settings": "0.01 μM, FIG. 4A"}, "[2]": {"test_system": "mouse primary cortical neurons", "test": "Mitochondrial ROS (MitoSox) upon excitotoxic stimuli", "format": "cell-based", "settings": "NMDA and glutamate excitotoxic models; inhibitor 0.01 μM", "protocol": "(§1) To directly test the ability of the PFKFB3 inhibitor, AZ67 and Compound 1, to protect against the damage caused by excitotoxic stimuli, mouse primary cortical neurons were subjected to a short-term exposure to NMDA or glutamate (100 μM for 10 minutes), a well-known excitotoxic stimuli (Almeida and Bolahos, 2001). For NMDAR activation, neurons at 8 days in vitro were incubated with 100 μM glutamate (plus 10 μM glycine) or 100 μM NMDA (plus 10 μM glycine) for 10 minutes. Neurons were then washed and further incubated in culture medium with the PFKFB3 inhibitors for 24 hours. A colorimetric NADP/NADPH assay kit (Abcam) was used. Cells were resuspended in 500 μl of NADP/NADPH extraction buffer, vortexed and centrifuged at 14,000 rpm for 5 minutes to remove insoluble material. The supernatant was used for NADPH +plus NADP+ measurement. NADPH was determined in 200 μl of the supernatant, after heatinged […] 60° C. for 30 minutes to decompose NADP+. Actual NADP and NADPH+ concentrations were calculated by extrapolating values to a NADPH standard curve (0-100 pmol/well).\nMitochondrial ROS was detected using the fluorescent probe MitoSox™ (Life Technologies). […] MitoSox™ fluorescence was assessed by flow cytometry and expressed in arbitrary units."}, "[3]": {"test_system": "mouse primary cortical neurons", "test": "Apoptosis of neurons induced by NMDA and glutamate", "format": "cell-based"}, "[4]": {"test_system": "influenza A H1N1 in MDCK", "format": "cell-based", "settings": "0, 0.1 μM, 1 μM, 10 μM and 100 μM"}, "[5]": {"test_system": "MCAO model of brain ischemia", "test": "MCAO model of brain ischemia, rota-rod test", "format": "in vivo, C57BL/6-J mice", "settings": "60 mg/kg bolus via jugular vein after reperfusion; 30 mins occlusion; test 24 hours after MCAO", "protocol": "For the MCAO model of brain ischemia, 10 weeks-old male C57BL/6-J mice were used (n=8 animals per condition) following a published protocol (1,2). Mice were anesthetized with 4% (vol/vol) Sevoflurane in a mixture of ⅓ O2 and ⅔ N2O using a vaporizer. After the induction of anesthesia, Sevoflurane was reduced to 3% (vol/vol). The body temperature was maintained at 36.5° C. during the surgery. A laser-Doppler flow probe attached to a flowmeter was located over the thinned skull in the MCAO area (4 mm lateral to bregma) to monitor the relative cerebral brain flow during the experiment. Under operating microscope, the common, external and internal carotid arteries were dissected from connective tissue through a midline neck incision. The common carotid artery (CCA) was carefully dissected from the surrounding nerves with caution to avoid harming of the vagal nerve. A suture monofilament was introduced from the lumen of the external carotid artery (ECA) into the internal carotid artery (ICA) to a distance of 9-10 mm beyond the CCA bifurcation, in order to occlude the origin of middle cerebral artery (MCA). The filament was removed 30 mins after occlusion. AZ67 or compound 1 (60 mg/kg of body weight) or vehicle were administered in a bolus (200 μl) via the jugular vein immediately after reperfusion. […] The latency to fall was determined and expressed in seconds."}, "[6]": {"test_system": "mouse primary cortical neurons", "test": "Apoptosis upon glutamate or NMDA (annexin V+/7AAD-)", "format": "cell-based", "settings": "for prevention of apoptotic neuronal death: inhibitor 0.01 μM", "protocol": "as §1\nTo show this, neurons were treated with glutamate of NMDA, and apoptosis assessed by annexin V+/7AAD− staining using flow cytometry, as described above."}}, "note": "Entries after “also recorded” stand apart in the source; their conditions may differ.", "data": [{"smiles": "Cc1noc(C)c1Cn1cc(C#N)c2cc(Oc3ccc(NC(=O)[C@@H]4CCCN4)cc3)ccc21", "note": "[AZ67, (2S)-N-[4-({3-cyano-1-[(3,5-dimethyl-1,2-oxazol-4-yl)methyl]-1H-indol-5-yl}oxy)phenyl]pyrrolidine-2-carboxamide]", "values": [{"measurement": "NADPH/NADP ratio", "setting": "[1]", "result": "restore NADPH/NADP ratio"}, {"measurement": "increase in mitochondrial ROS", "setting": "[2]", "result": "significantly prevented the increase in mitochondrial ROS; also recorded: prevent mitochondrial ROS increase"}, {"measurement": "apoptotic neuronal death increased by glutamate and NMDA", "setting": "[3]; FIG. 5", "result": "significantly prevented"}, {"measurement": "neuroprotection under PFK1-M overexpression", "setting": "[3]; PFK1-M overexpression, FIGS. 6B and 6C", "result": "abolish the neuroprotection"}, {"measurement": "protection of mouse primary cortical neurons from apoptosis", "setting": "[3]; apoptosis induced by NMDA and glutamate, FIG. 6A", "result": "protect"}, {"measurement": "antiviral activity (anti-HA immunostain)", "setting": "[4]", "result": "demonstrate antiviral activity"}, {"measurement": "improvement in rota-rod test performance (latency to fall)", "setting": "[5]", "result": "~50", "unit": "%"}, {"measurement": "protection from apoptosis", "setting": "[6]; NMDA and glutamate", "result": "protect mouse primary cortical neurons from apoptosis"}, {"measurement": "prevention of apoptotic neuronal death", "setting": "[6]; NMDA", "result": 90, "unit": "%"}, {"measurement": "prevention of apoptotic neuronal death", "setting": "[6]; glutamate", "result": 76, "unit": "%"}]}]}
